From patent US20240343706A1, “PIPERIDINE-2,6-DIONE DERIVATIVES WHICH BIND TO CEREBLON, AND METHODS OF USE THEREOF” (Captor Therapeutics S.A., priority 2019, published 2024) come the findings set out here.

One assay concerns IKZF1. Description: IKZF1 degradation assay, H929 cell line (western blot densitometry). Type of assay: cell-based. Conditions: H929 cells; for % of protein reduction based on densitometry values, IKZF 1 (24 H): summary Table 10, 20 μM (some compounds 10 and 20 μM). An excerpt: (§1) After primary and secondary Ab staining, the membranes were washed and signals developed. The densitometry analysis was implemented to obtain the numeric values used later in the protein level evaluation process.
On the technique in general: Immunoblotting shows a protein as a band on a membrane.

For the next assay, the system named is IKZF3. Description: IKZF3 degradation assay, H929 cell line (western blot densitometry). The following applies: H929 cells. In kind it is cell-based.
Assay [1] addresses CRBN-DDB1 protein complex (Homo sapiens, UniProt Q96SW2). Description: Fluorescence polarization (FP) assay, displacement of Cy5-labelled thalidomide. The following applies: 25 nM CRBN-DDB1, 5 nM Cy5-labelled thalidomide, read-out: CRBN binding Ki. On the procedure:
CRBN-DDB1 protein complex was mixed with Cy5-labelled thalidomide and a compound to be tested (the “test compound”). […] The test solution was added to a 384-well assay plate.
The plate was spun-down (1 min, 1000 rpm, 22° C.) and then shaken using a VibroTurbulator for 10 min at room temperature (20-25° C.), with the frequency set to level 3. The assay plate with protein and the tracer was incubated for 60 min at room temperature (20-25° C.) prior to read-out with a plate reader.
The FP experiment was carried out with various concentrations of the test compounds in order to measure Ki values.
For orientation: Polarisation of emitted light reports the rotation of a fluorescent probe.

In a further assay the test system is CK1α. Description: CK1α degradation assay, Kelly cell line (western blot densitometry). The following applies: summary Table 10; Kelly cells, 24 H; 20 μM (some compounds 10 and 20 μM). Type of assay: cell-based.
Source text: as §1

The subject of the next assay is SALL4. Description: SALL4 degradation assay, Kelly cell line (western blot densitometry). In kind it is cell-based. Conditions: summary Table 10; Kelly cells, 24 H; 20 μM (some compounds 10 and 20 μM).
Source text: as §1

Chain of CRBN-DDB1 protein complex (Q96SW2 whole entry): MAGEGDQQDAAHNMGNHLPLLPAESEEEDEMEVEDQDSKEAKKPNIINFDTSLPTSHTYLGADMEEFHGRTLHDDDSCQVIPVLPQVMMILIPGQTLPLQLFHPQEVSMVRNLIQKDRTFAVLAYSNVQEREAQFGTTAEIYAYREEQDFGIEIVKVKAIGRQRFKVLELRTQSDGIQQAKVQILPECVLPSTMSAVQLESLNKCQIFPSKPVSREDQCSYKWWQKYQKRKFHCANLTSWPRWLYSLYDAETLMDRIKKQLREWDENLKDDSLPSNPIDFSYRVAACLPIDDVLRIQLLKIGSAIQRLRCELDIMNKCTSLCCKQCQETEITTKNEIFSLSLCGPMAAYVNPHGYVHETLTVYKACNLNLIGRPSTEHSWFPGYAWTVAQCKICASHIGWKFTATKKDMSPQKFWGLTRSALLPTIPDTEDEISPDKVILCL
Chain of CRBN-DDB1 protein complex (Q16531 whole entry partner): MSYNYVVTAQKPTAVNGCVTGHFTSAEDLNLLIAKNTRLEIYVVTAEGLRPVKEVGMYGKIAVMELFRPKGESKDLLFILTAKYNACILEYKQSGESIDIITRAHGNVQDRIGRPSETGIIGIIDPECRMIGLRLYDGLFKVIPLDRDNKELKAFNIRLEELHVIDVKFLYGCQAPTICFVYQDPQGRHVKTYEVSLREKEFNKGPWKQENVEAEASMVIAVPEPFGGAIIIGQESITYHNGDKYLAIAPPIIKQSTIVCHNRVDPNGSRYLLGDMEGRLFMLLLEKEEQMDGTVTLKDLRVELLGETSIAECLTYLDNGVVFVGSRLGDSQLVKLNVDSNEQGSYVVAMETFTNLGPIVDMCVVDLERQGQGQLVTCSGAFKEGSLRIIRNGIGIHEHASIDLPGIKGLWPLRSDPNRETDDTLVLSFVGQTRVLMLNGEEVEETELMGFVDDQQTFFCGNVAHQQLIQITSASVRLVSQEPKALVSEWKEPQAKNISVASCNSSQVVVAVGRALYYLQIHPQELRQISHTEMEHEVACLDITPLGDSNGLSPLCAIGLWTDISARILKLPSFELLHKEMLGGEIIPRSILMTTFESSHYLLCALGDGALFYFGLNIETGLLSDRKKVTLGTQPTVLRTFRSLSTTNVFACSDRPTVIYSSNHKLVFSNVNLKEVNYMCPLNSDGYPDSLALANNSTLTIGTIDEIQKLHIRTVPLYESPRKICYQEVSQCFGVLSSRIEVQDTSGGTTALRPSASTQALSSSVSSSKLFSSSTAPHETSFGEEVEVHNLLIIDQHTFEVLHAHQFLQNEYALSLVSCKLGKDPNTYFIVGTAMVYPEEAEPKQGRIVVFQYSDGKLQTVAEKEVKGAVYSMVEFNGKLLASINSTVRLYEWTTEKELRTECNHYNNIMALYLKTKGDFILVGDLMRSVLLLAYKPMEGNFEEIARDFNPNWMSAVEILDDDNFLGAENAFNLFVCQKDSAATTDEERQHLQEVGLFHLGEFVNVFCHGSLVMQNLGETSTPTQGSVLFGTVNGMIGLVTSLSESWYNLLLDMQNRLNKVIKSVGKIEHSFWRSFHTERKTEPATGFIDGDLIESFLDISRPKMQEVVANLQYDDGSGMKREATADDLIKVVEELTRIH

In the case of `Cc1sc2c(c1C)C(c1ccc(Cl)cc1)=N[C@@H](CC(=O)Nc1ccc(OCCOCCOCCOCCNc3cccc4c3C(=O)N(C3CCC(=O)NC3=O)C4=O)cc1)c1nnc(C)n1-2` (stereo partly drawn) [ARV-825, reference compound], the “% of IKZF1 α protein reduction based on densitometry values” is reported as >25% (>25% for 26-74% of IKZF1 protein reduction) with IKZF1 (0.1 μM, 6 h); >25% (>25% for 26-74% of IKZF1 protein reduction) in the assay on IKZF1 (1 μM, 6 h); >25% (>25% for 26-74% of IKZF1 protein reduction) with IKZF1 (10 μM, 6 h). In the assay on IKZF1 (6 h, 0.1-10 μM), this molecule returned an IKZF1 degradation of about 50%. Moreover, the “% of IKZF3 protein reduction based on densitometry values, IKZF3 Band I” value is >25% (>25% for 26-74% of IKZF3 protein reduction) with IKZF3 (0.1 μM, 6 h); >25% (>25% for 26-74% of IKZF3 protein reduction) in the assay with IKZF3 (1 μM, 6 h); >25% (>25% for 26-74% of IKZF3 protein reduction) in the assay with IKZF3 (10 μM, 6 h). The “% of IKZF3 protein reduction based on densitometry values, IKZF3 Band II” value in the assay with IKZF3 (0.1 μM, 6 h) is given as >25% (>25% for 26-74% of IKZF3 protein reduction); with IKZF3 (1 μM, 6 h), >25% (>25% for 26-74% of IKZF3 protein reduction); with IKZF3 (10 μM, 6 h), >25% (>25% for 26-74% of IKZF3 protein reduction). In the assay with IKZF3 (6 h, 0.1-10 μM), this molecule registered an IKZF3 degradation of about 60%. As usually defined, the Ki is the dissociation constant of the complex between target and ligand, obtained from inhibition or displacement. Regarding `O=C1CCC(NC(=O)c2cccc3nc[nH]c23)C(=O)N1` (stereo not drawn) [Compound 2, N-(2,6-dioxopiperidin-3-yl)-1H-1,3-benzodiazole-7-carboxamide], in assay [1], the Ki lay in the range of 1 to 10 µM.

As for `O=C1CCC(NC(=O)c2cccc3[nH]c(=O)[nH]c23)C(=O)N1` (stereo not drawn) [Compound 3, N-(2,6-dioxopiperidin-3-yl)-2-oxo-2,3-dihydro-1H-benzo[d]imidazole-4-carboxamide], in the assay with CK1α, the “% of protein reduction based on densitometry values, CK1α (24 H)” value was ≤25% (≤25% for 0-25% of CK1a protein reduction). Further, in the assay with SALL4, the “% of protein reduction based on densitometry values, SALL4 (24 H)” value is given as ≤25% (≤25% for 0-25% of SALL4 protein reduction). The “% of protein reduction based on densitometry values, IKZF 1 (24 H)” value in the assay with IKZF1 was ≤25% (≤25% for 0-25% of IKZF1 protein reduction). In the same order, the values of `Cn1cnc2cccc(C(=O)NC3CCC(=O)NC3=O)c21` (stereo not drawn) [Compound 5, N-(2,6-dioxopiperidin-3-yl)-1-methyl-1H-benzo[d]imidazole-7-carboxamide] are ≤25% (≤25% for 0-25% of CK1a protein reduction), ≤25% (≤25% for 0-25% of SALL4 protein reduction) and ≤25% (≤25% for 0-25% of IKZF1 protein reduction). On the same counts, the results for `CCCCCC(=O)Nc1cc(C(=O)NC2CCC(=O)NC2=O)c2c(c1)ncn2C` (stereo not drawn) [Compound 6, N-(2,6-dioxopiperidin-3-yl)-5-hexanamido-1-methyl-1H-benzo[d]imidazole-7-carboxamide] are ≤25% (≤25% for 0-25% of CK1a protein reduction), ≤25% (≤25% for 0-25% of SALL4 protein reduction) and ≤25% (≤25% for 0-25% of IKZF1 protein reduction). As to `O=C1CCC(NC(=O)c2ccnc3[nH]cnc23)C(=O)N1` (stereo not drawn) [Compound 9, N-(2,6-dioxopiperidin-3-yl)-3H-imidazo[4,5-b]pyridine-7-carboxamide], the Ki in assay [1] fell in the range of 1 to 10 µM. The same measure, in the same setting: as for `O=C1CCC(NC(=O)c2cncc3[nH]cnc23)C(=O)N1` (stereo not drawn) [Compound 10, N-(2,6-dioxopiperidin-3-yl)-3H-imidazo[4,5-c]pyridine-7-carboxamide], the figure is 1 to 10 µM; as for `O=C1CCC(NC(=O)c2nccc3[nH]cnc23)C(=O)N1` (stereo not drawn) [Compound 11, N-(2,6-dioxopiperidin-3-yl)-1H-imidazo[4,5-c]pyridine-4-carboxamide], 1 to 10 µM; as for `O=C1CCC(NC(=O)c2cccc3[nH]c(Cl)nc23)C(=O)N1` (stereo not drawn) [Compound 12, 2-chloro-N-(2,6-dioxopiperidin-3-yl)-1H-benzo[d]imidazole-4-carboxamide], under 1 µM. Same read-out and setting: as for `N#Cc1nc2c(C(=O)NC3CCC(=O)NC3=O)cccc2[nH]1` (stereo not drawn) [Compound 22, 2-cyano-N-(2,6-dioxopiperidin-3-yl)-1H-benzo[d]imidazole-4-carboxamide], the figure is under 1 µM; as for `Nc1ccc2[nH]c(C(F)(F)F)nc2c1C(=O)NC1CCC(=O)NC1=O` (stereo not drawn) [Compound 26, 6-amino-N-(2,6-dioxopiperidin-3-yl)-2-(trifluoromethyl)-1H-1,3-benzodiazole-7-carboxamide], 1 to 10 µM; as for `Cc1cc2cccc(C(=O)NC3CCC(=O)NC3=O)c2s1` (stereo not drawn) [Compound 41, N-(2,6-dioxopiperidin-3-yl)-2-methylbenzo[b]thiophene-7-carboxamide], 1 to 10 µM. With `O=C1CCC(NC(=O)c2cccc3c(Br)n[nH]c23)C(=O)N1` (stereo not drawn) [Compound 42, 3-bromo-N-(2,6-dioxopiperidin-3-yl)-1H-indazole-7-carboxamide], the Ki in assay [1] lay within 10 to 50 µM. Take `O=C1CCC(NC(=O)c2cccc3c(-c4cccs4)n[nH]c23)C(=O)N1` (stereo not drawn) [Compound 43, N-(2,6-dioxopiperidin-3-yl)-3-(thiophen-2-yl)-1H-indazole-7-carboxamide]: the Ki in assay [1] fell in the range of 1 to 10 µM.

Take `O=C1CCC(NC(=O)c2cc(Br)cc3cn[nH]c23)C(=O)N1` (stereo not drawn) [Compound 47, 5-bromo-N-(2,6-dioxopiperidin-3-yl)-1H-indazole-7-carboxamide]: the Ki in assay [1] was in the range of 1 to 10 µM.

`Nc1ccc2cn[nH]c2c1C(=O)NC1CCC(=O)NC1=O` (stereo not drawn) [Compound 48, 6-amino-N-(2,6-dioxopiperidin-3-yl)-1H-indazole-7-carboxamide]: the Ki in assay [1] fell in the range of 1 to 10 µM.

Regarding `Cc1nc2c(C(=O)NC3CCC(=O)NC3=O)cccc2o1` (stereo not drawn) [Compound 51, N-(2,6-dioxopiperidin-3-yl)-2-methylbenzo[d]oxazole-4-carboxamide], the Ki in assay [1] was in the range of 1 to 10 µM.

On to `Cc1nc2cccc(C(=O)NC3CCC(=O)NC3=O)c2o1` (stereo not drawn) [Compound 52, N-(2,6-dioxopiperidin-3-yl)-2-methylbenzo[d]oxazole-7-carboxamide], for which the Ki in assay [1] lay within 1 to 10 µM. Still for that read-out and setting: the same measure for `Cc1nc2cccc(C(=O)NC3CCC(=O)NC3=O)c2s1` (stereo not drawn) [Compound 53, N-(2,6-dioxopiperidin-3-yl)-2-methylbenzo[d]thiazole-7-carboxamide]: 1 to 10 µM; for `O=C1CCC(NC(=O)c2ccnc3scnc23)C(=O)N1` (stereo not drawn) [Compound 54, N-(2,6-dioxopiperidin-3-yl)thiazolo[5,4-b]pyridine-7-carboxamide]: 1 to 10 µM. With `O=C1CCC(NC(=O)c2cccc3[nH]nnc23)C(=O)N1` (stereo not drawn) [Compound 55, N-(2,6-dioxopiperidin-3-yl)-1H-benzo[d][1,2,3]triazole-4-carboxamide], the Ki in assay [1] is 1 to 10 µM. Besides, the “% of IKZF3 protein reduction based on densitometry values, IKZF3 Band I” value in the assay on IKZF3 (10 μM, 24 h) is ≤25% (≤25% for 0-25% of IKZF3 protein reduction); with IKZF3 (20 μM, 24 h), ≤25% (≤25% for 0-25% of IKZF3 protein reduction). The “% of IKZF3 protein reduction based on densitometry values, IKZF3 Band II” value is given as ≤25% (≤25% for 0-25% of IKZF3 protein reduction) in the assay on IKZF3 (10 μM, 24 h) and ≤25% (≤25% for 0-25% of IKZF3 protein reduction) with IKZF3 (20 μM, 24 h). For the molecule `O=C1CCC(NC(=O)c2cccc3nnsc23)C(=O)N1` (stereo not drawn) [Compound 58], the Ki in assay [1] fell in the range of 10 to 50 µM. For the molecule `O=C1CCC(NC(=O)c2csc3[nH]cnc23)C(=O)N1` (stereo not drawn) [Compound 60, N-(2,6-dioxopiperidin-3-yl)-1H-thieno[2,3-d]imidazole-6-carboxamide], in assay [1], the Ki was in the range of 1 to 10 µM. For the molecule `Cc1sc2c(c1C)C(c1ccc(Cl)cc1)=N[C@@H](CC(=O)Nc1ccc(OCCOCCOCCNC(=O)CCc3nc4c(C(=O)NC5CCC(=O)NC5=O)cccc4[nH]3)cc1)c1nnc(C)n1-2` (stereo partly drawn) [Compound 63, 2-(3-((2-(2-(2-(4-(2-((S)-4-(4-chlorophenyl)-2,3,9-trimethyl-6H-thieno[3,2-f][1,2,4]triazolo[4,3-a][1,4]diazepin-6-yl)acetamido)phenoxy)ethoxy)ethoxy)ethyl)amino)-3-oxopropyl)-N-(2,6-dioxopiperidin-3-yl)-1H-benzo[d]imidazole-7-carboxamide], the Ki in assay [1] lay within 1 to 10 µM.

Consider `Cc1nc2c(C(=O)NC3CCC(=O)NC3=O)c(OCC(=O)NCCCCCCCCNC(=O)C[C@@H]3N=C(c4ccc(Cl)cc4)c4c(sc(C)c4C)-n4c(C)nnc43)ccc2[nH]1` (stereo partly drawn) [Compound 67, 6-(2-((8-(2-((S)-4-(4-chlorophenyl)-2,3,9-trimethyl-6H-thieno[3,2-f][1,2,4]triazolo[4,3-a][1,4]diazepin-6-yl)acetamido)octyl)amino)-2-oxoethoxy)-N-(2,6-dioxopiperidin-3-yl)-2-methyl-1H-benzo[d]imidazole-7-carboxamide], for which the inhibitory constant (Ki) in assay [1] is 1 to 10 µM.
